Values joined by “and” are separate entries in the source; they are usually repeats but may differ in a detail not shown here. Equal values may be shown once. “Also recorded” adds a separate entry of the source.
Legend:
Format in all cases: in vivo, rat
[1] = Plasma LH levels in male rats of varying hormonal status; conditions: 0.5 mg/day; for Plasma LH levels: 14 days, n = 5
From the text: (§1) Compound VI and Compound VII were synthesized and characterized in the laboratory of Dr. Duane Miller at the University of Tennessee, Memphis, Tenn. Male Sprague-Dawley rats were purchased from Harlan Biosciences (Indianapolis, Ind.). The animals were maintained on a 12-h cycle of light and dark with food and water available ad libitum. All animal studies were reviewed and approved by the Animal Care and Use Committee of The Ohio State University, and conformed to the Principles of Laboratory Animal Care (NIH publication #85-23, revised 1985). Immature male Sprague-Dawley rats weighing 187 to 214 g were randomly distributed into 9 groups of 5 animals. One day before the initiation of drug treatment, groups 4 through 6 and groups 7 through 9 received unilateral or bilateral orchidectomy, respectively, via a midline scrotal incision. […] All drugs given to animals were freshly prepared as solutions in polyethylene glycol 300 (PEG 300). Groups 4 and 7 received treatment with vehicle alone (i.e., PEG 300). Animals in groups 3, 6, and 9 received testosterone propionate (TP, 0.5 mg/day) via implantation of subdermal osmotic pumps (Model 2002, Durect Corporation, Palo Alto, Calif.). Animals in groups 2, 5, and 8 received Compound VI or Compound VII (0.5 mg/day) via implantation of subdermal osmotic pumps. After 14 days of drug treatment, rats were weighed, anesthetized, and sacrificed. Blood samples were collected by venipuncture of the abdominal aorta. Plasma samples were analyzed for testosterone, FSH, LH and osteocalcin. Testosterone concentrations were measured by AniLytics Inc. (Gaithersburg, Md.). FSH and LH levels were measured by the National Hormone and Peptide Program (Dr. A F Parlow, UCLA, CA). Plasma osteocalcin levels were determined using a commercially available rat osteocalcin EIA kit from Biomedical Technologies Inc. (Stoughton, Mass.). The ventral prostates, seminal vesicles, and levator ani muscle were removed and weighed. Osmotic pumps were also removed from animals to check for correct pump operation. The weights of all organs were normalized to body weight, and analyzed for any statistically significant differences between groups using single-factor ANOVA with the alpha value set a priori at p<0.05. The weights of prostates and seminal vesicles were used as indices for evaluation of androgenic activity, and the levator ani muscle weight was used to evaluate the anabolic activity. Statistical analyses of parameters from complete blood count or serum chemical profiling, wherever applicable, were performed by single-factor ANOVA with the alpha value set a priori at p<0.05.

[2] = tested on: androgen-responsive tissues (prostate, seminal vesicles, levator ani muscle); assay: Androgenic and anabolic activity: weight of androgen-responsive tissues in intact, hemi-orchidectomized and castrated rats; conditions: for Levator Ani weight / Prostate weight / Seminal Vesicle weight: n = 5
Description: FIG. 3: Androgenic and Anabolic activity of Compound VI and Compound VII in rats. Male rats with normal testicular function (no surgical manipulation) were left untreated (Intact), treated with compound VI (0.5 mg/day), compound VII (0.5 mg/day) or testosterone proprionate (TP, 0.5 mg/day), and the weight of androgen-responsive tissues (prostate—FIG. 3A, semimal vesicles—FIG. 3B, and levator ani muscle—FIG. 3C) was determined.
(§2) FIG. 4: Androgenic and Anabolic activity of Compound VI and Compound VII in rats. Male rats received unilateral orchidectomy (Hemi-orchidectomized) and were left untreated (Intact), treated with vehicle alone (PEG 300), Compound VI (0.5 mg/day), Compound VII (0.5 mg/day), or testosterone proprionate (TP, 0.5 mg/day), and the weight of androgen-responsive tissues (prostate—FIG. 4A, semimal vesicles—FIG. 4B, and levator ani muscle—FIG. 4C) was determined.
as §2, with “5:” for “4:”, “bilateral” for “unilateral”, “(Castrated)” for “(Hemi-orchidectomized)”, “5A,” for “4A,”, “5B,” for “4B,”, “5C)” for “4C)”
as §1

[3] = tested on: female rats after ovariectomy; assay: Bone mineral content (DEXA) in female rats after ovariectomy
Description: (§3) One hundred ten female rats were assigned to one of eleven treatment groups. Groups 1-8 were ovariectomized on day one of the study. Groups 9-11 were intact animals. Groups 1-6 received Compound VI by daily subcutaneous injection at doses of 0.1, 0.3, 0.5, 0.75, 1.0, and 3 mg/day, respectively. Groups 7 and 11 received dihydrotestosterone (DHT) at a dose of 1 mg/day. Groups 8 and 9 were ovariectomized and intact control groups, respectively. Group 10 received Compound VI at a dose of 1.0 mg/day. All animals were treated for 120 days. Bone mineral content (BMC) was determined using dual energy x-ray absorptiometry (DEXA) on days 1, 30, 60, 90, and 120.

[4] = Plasma FSH levels in male rats of varying hormonal status; conditions: 0.5 mg/day; for Plasma FSH levels: 14 days, n = 5
From the text: as §1

[5] = Plasma osteocalcin levels in male rats of varying hormonal status; conditions: 0.5 mg/day; for Plasma osteocalcin levels: 14 days, n = 5
From the text: as §1

[6] = tested on: female rats after ovariectomy; assay: Bone biomechanical strength, cortical thickness, trabecular density and muscle mass in ovariectomized and intact female rats
Description: as §3

[7] = Plasma testosterone levels in male rats of varying hormonal status; conditions: 0.5 mg/day; for Plasma testosterone levels: osmotic pump, 14 days, n = 5
From the text: as §1

[8] = TP statement for castrated male rats
[9] = castrated rats, 0.5 mg/day, 14 days
[10] = hemi-orchidectomized animals, 0.5 mg/day
[11] = hemi-orchidectomized rats, 0.5 mg/day, 14 days
[12] = intact rats, 0.5 mg/day, 14 days

With `CC(=O)Nc1ccc(OC[C@](C)(O)C(=O)Nc2ccc([N+](=O)[O-])c(C(F)(F)F)c2)cc1` [Compound VI] the “effect on plasma LH levels” value [1, 8] was “no effect”, the “Plasma LH levels” value ([1]; castrated male rats) was 8.644 ± 2.799 ng/mL and the “Plasma LH levels” value ([1]; hemi-orchidectomized male rats) was 0.124 ± 0.115 ng/mL. For the same compound, the “Plasma LH levels” value ([1]; intact male rats) was 0.026 ± 0.037 ng/mL, the “increasing the weight of the prostate, compared with TP” value ([2]; castrated animals) was “less effective than TP” and the “Levator Ani weight” value [2, 9] was 100.65 % of intact control. For the same compound, the Prostate weight [2, 9] was 32.55 % of intact control, the “Seminal Vesicle weight” value [2, 9] was 16.47 % of intact control and the “agonist character in levator ani muscle” value ([2]; from organ weights in rats) was “full agonist”. The “agonist character in prostate and seminal vesicles” value ([2]; from organ weights in rats) was “partial agonist”, the “effect on weight of the levator ani muscle” value ([2]; hemi-orchidectomized and castrated animals) was “significant increases” and the “size of the levator ani muscle, of that observed in untreated hemi-orchidectomized animals” value [2, 10] was 108%. The “size of the prostate, of that observed in untreated hemi-orchidectomized animals” value [2, 10] was 75%, the “size of the seminal vesicles, of that observed in untreated hemi-orchidectomized animals” value [2, 10] was 79% and the “Levator Ani weight” value [2, 11] was 108.10 % of intact control. For the same compound, the Prostate weight [2, 11] was 74.69 % of intact control, the “Seminal Vesicle weight” value [2, 11] was 78.55 % of intact control and the “effect on prostate weights” value ([2]; intact and hemi-orchidectomized animals) was “significant decreases in prostate weights”. For the same compound, the “change in size of levator ani muscle” value ([2]; intact animals, 0.5 mg/day) was “no statistically significant changes”, the “change in size/weight of the seminal vesicles” value ([2]; intact animals, 0.5 mg/day) was “no statistically significant changes; also recorded: no effect” and the “Levator Ani weight” value [2, 12] was 109.15 % of intact control. The Prostate weight [2, 12] was 79 % of intact control and 79.41 % of intact control, the “Seminal Vesicle weight” value [2, 12] was 90.54 % of intact control and the adverse pharmacologic effects ([2]; male rats, 0.5 mg/day, 14 days) was “No adverse pharmacologic effects were observed”. For the same compound, the “whole body BMC” value ([3]; FIG. 9) was “increased whole body BMC in a dose-dependent and time-dependent manner”, the “effect at L2-L4 vertebra and proximal femur” value ([3]; FIG. 10) was “protective effect” and the “potency comparison Compound VI versus DHT” value ([3]; ovariectomized female rat bone model) was “more potent than DHT”. The “bone resorption” value ([3]; ovariectomized female rats, 120 days) was “inhibited bone resorption”, the “increase in BMC” value ([3]; ovariectomized female rats, 0.1 mg/day s.c. daily, treated for 120 days (group 1)) was 22.9% and the “increase in BMC” value ([3]; ovariectomized female rats, 0.3 mg/day s.c. daily, treated for 120 days (group 2)) was 26.0%. The “increase in BMC” value ([3]; ovariectomized female rats, 0.5 mg/day s.c. daily, treated for 120 days (group 3)) was 28.5%, the “increase in BMC” value ([3]; ovariectomized female rats, 0.75 mg/day s.c. daily, treated for 120 days (group 4)) was 30.5% and the “increase in BMC” value ([3]; ovariectomized female rats, 1.0 mg/day, treated for 120 days (group 5; DHT 1 mg/day)) was 30.0%. The “increase in BMC” value ([3]; ovariectomized female rats, 3 mg/day s.c. daily, treated for 120 days (group 6)) was 40.1%, the “effect on plasma FSH levels” value [4, 8] was “no effect” and the “Plasma FSH levels” value ([4]; castrated male rats) was 69.6 ± 11.7 ng/mL. For the same compound, the “Plasma FSH levels” value ([4]; hemi-orchidectomized male rats) was 15.2 ± 2.2 ng/mL, the “Plasma FSH levels” value ([4]; intact male rats) was 14.4 ± 1.7 ng/mL and the “effect on plasma osteocalcin levels” value ([5]; Compound VI statement for hemi-orchidectomized and castrated animals) was “significant increase”. The Plasma osteocalcin levels ([5]; castrated male rats) was 94.215 ± 12.568 ng/mL, the Plasma osteocalcin levels ([5]; hemi-orchidectomized male rats) was 89.804 ± 15.517 ng/mL and the Plasma osteocalcin levels ([5]; intact male rats) was 55.584 ± 9.715 ng/mL. The “biomechanical strength of the L5 vertebra and femur” value ([6]; FIG. 11) was “increased biomechanical strength”, the “cortical thickness in the femoral mid-shaft” value ([6]; FIG. 12) was “increased cortical thickness” and the “trabecular bone loss in the distal femur” value ([6]; OVX animals) was “only partially prevented trabecular bone loss”. The “muscle mass” value ([6]; gonadectomized and intact animals) was “increased muscle mass”, the “trabecular density of the distal femur” value ([6]; intact animals) was “proliferative effect” and the Plasma testosterone levels ([7]; castrated male rats) was 0.066 ± 0.148 ng/mL. The Plasma testosterone levels ([7]; hemi-orchidectomized male rats) was 1.404 ± 0.810 ng/mL, the Plasma testosterone levels ([7]; intact male rats) was 1.830 ± 0.510 ng/mL and the “effect on testosterone levels” value ([7]; intact, hemi-orchidectomized or castrated male rats) was “did not affect testosterone levels”.
